The text below walks through data of patent US8895753B2, “S1P receptor modulating agent” (Meiji Seika Pharma Co., Ltd., priority 2011, dated 2014).

For one data set, the target named is T1, Human S1P4 receptor (Homo sapiens, UniProt O95977).
T1 sequence (O95977 1-384): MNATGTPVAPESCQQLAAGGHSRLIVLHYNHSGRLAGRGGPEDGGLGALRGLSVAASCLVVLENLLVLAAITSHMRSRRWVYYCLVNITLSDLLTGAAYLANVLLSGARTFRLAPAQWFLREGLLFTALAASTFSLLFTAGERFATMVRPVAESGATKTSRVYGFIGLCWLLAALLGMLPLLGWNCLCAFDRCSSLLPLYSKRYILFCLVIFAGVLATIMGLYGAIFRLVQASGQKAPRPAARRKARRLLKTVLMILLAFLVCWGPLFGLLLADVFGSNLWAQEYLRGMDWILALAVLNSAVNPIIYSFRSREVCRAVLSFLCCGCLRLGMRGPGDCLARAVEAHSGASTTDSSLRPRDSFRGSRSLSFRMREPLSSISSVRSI
The data set is described as follows: Agonist activity at an S1P4 receptor (calcium influx). The following applies: at 1000 nM; read-out: activity at S1P4 receptor (elevation of intracellular calcium). The data set is classed as cell-based. How it is done: By using Human S1P4 receptor expressing cells (Multispan Inc. CG1052-1), the elevation of intracellular calcium concentration via agonist activity by the addition of 1000 nM was measured by Fret method (fluorescence resonance energy transfer).

Data set [1] concerns the target T2, Human S1P1 receptor (Homo sapiens, UniProt P21453). In words: Agonist activity at an S1P1 receptor (reporter assay, EDG1-bla/U2OS cells). The format is cell-based. On the set-up: host or cells: U2OS (EDG1-bla/U2OS). Particulars: S1P maximum response = 100%. In short, it runs like this: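 EDG1-bla/U2OS cells grown 48 h, then exposed to test compound for 5 h at 37 °C; CCF4-AM β-lactamase substrate added for 2 h at room temperature in the dark. Read-out is the 460/530 nm emission ratio (Ex409 nm), normalised to maximal S1P response as 100%; EC50 is the concentration giving 50% of maximal activation.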

In data set [2] the target is T3, Human S1P3 receptor (Homo sapiens, UniProt Q99500). In words: Agonist activity at an S1P3 receptor ([35S]-GTPγS exchange reaction at 1000 nM). The data set is classed as biochemical. Particulars: read-out: percent of the maximal agonist activity at S1P3 receptor. An outline of the steps:
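Agonism measured by [35S]-GTPγS exchange in membranes from human S1P3-expressing cells, compound tested at 1000 nM.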

The target in data set [3] is T3, Human S1P3 receptor. The data set is described as follows: Agonist activity at a S1P3 receptor (reporter assay, EDG3-Galpha15-NFAT-bla HEK293T cells). The format is cell-based. How it is done: Human S1P3 receptor gene recombinant EDG3-Galpha15-NFAT-bla HEK293T cells (Life Technologies Japan Ltd.) were plated into a 384-well clear bottom black plate treated with poly-D-lysine at a density of 1000 cells/32 μL/well, and the plate was cultured at 37° C. in a 5% CO2 incubator for 16-24 hours. A culture medium containing each test compound prepared as a 5× concentrate was added at 8 μL/well, and the plate was incubated at 37° C. in a 5% CO2 incubator for 5 hours. The substrate (LiveBLAzer™-FRET B/G substrate (CCF4-AM), Life Technologies Japan Ltd.) was prepared as a 6× concentrate was added at 8 μL to each well, and the plate was incubated at room temperature for 2 hours in the dark. The fluorescence intensity of the test samples was measured using a bottom-reading fluorescence microplate reader at one excitation wavelength and 2 wavelengths for fluorescence emission (Ex409 nm, Em460 nm, Em530 nm). The intensity ratio of fluorescence at 460 nm/530 nm was calculated for the compound at each well. The maximum response ratio confirmed from the dose response of S1P was expressed as 100%. The concentration of test compounds required to stimulate 50% of its maximal activation was computed as EC50 (nM).

Another data set has as its system blood lymphocytic cells. In words: Suppressive effect on circulating lymphocytic cells in a rat. The data set is classed as in vivo. The following applies: 6 hours after administration. How it is done: Under anesthesia, a femoral artery was cannulated in a 7-11-week old male SD rat (Charles River Laboratories Japan Inc.) that had been reared for more than one week. A vehicle (in case of intravascular administration, 10% PEG300-0.01 M KOH saline was used, and in case of oral administration, 0.5% hydroxymethyl cellulose solution was used) or a test compound was administered intravascularly or by gavage administration. Right before the administration or 2, 4, 6 hours after the administration, the number of blood lymphocytic cells was counted by using an automated hematology analyzer XT-1800i or XT-2000i (Sysmex). The count of lymphocytic cells right before the administration was regarded as 100%, and the dose of the test compound that reduced blood lymphocytic cells by 50% of vehicle-treated group at the point of 6 hours after the administration was calculated as ED50 (mg/kg body weight).

Another data set concerns heart rate. In words: Evaluation of the heart rate in a rat (under consciousness). The format is in vivo. The following applies: conscious rat, vascularly administered at 6 mg/kg body weight. How it is done:
Under anesthesia, femoral artery was cannulated in a 7-11-week old male SD rat (Charles River Laboratories Japan Inc.) that had been reared for more than one week. Arterial cannula was connected to a pressure transducer, and under consciousness changes in the heart rate were monitored with a polygraph (Nihon Kohden) up to 4 hours after the vascular administration of the vehicle (10% PEG300-0.01M KOH saline) or the test compounds. The dose that lowered the heart rate by 20% was computed as TD20 (mg/kg body weight).

Data set [4] has as its target T2, Human S1P1 receptor. In words: Agonist activity at an S1P1 receptor ([35S]-GTPγS exchange reaction, membrane fractions). The format is biochemical. Particulars: read-out: EC50, agonist activity at S1P1 receptor (GTP exchange reaction). How it is done: By using membrane fractions prepared from a human S1P1 receptor expressing cells (Multispan Ltd.), the agonist activity of each test compound was measured by [^35S]-GTPγS exchange reaction in accordance with a standard procedure (Methods in Molecular Biology, Vol. 552, p 143-151 (2009)), and EC50 (nM) of each test compound was computed.

pEC50: −log10 of the molar value. “And” between values parts separate entries of the source, which are not always exact repeats. Identical values can stand only once.

T3 sequence (Q99500 whole entry): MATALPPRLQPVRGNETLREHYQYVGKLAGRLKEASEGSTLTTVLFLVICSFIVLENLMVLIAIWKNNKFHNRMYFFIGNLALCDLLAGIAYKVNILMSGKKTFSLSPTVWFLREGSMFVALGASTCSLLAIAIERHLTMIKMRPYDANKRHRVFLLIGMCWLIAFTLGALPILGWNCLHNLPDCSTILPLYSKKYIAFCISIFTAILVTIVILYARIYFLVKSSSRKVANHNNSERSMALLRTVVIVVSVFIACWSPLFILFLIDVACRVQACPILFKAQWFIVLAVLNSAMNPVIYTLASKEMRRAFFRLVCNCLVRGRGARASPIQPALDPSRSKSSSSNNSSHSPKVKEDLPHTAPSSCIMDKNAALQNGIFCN
T2 sequence (P21453 whole entry): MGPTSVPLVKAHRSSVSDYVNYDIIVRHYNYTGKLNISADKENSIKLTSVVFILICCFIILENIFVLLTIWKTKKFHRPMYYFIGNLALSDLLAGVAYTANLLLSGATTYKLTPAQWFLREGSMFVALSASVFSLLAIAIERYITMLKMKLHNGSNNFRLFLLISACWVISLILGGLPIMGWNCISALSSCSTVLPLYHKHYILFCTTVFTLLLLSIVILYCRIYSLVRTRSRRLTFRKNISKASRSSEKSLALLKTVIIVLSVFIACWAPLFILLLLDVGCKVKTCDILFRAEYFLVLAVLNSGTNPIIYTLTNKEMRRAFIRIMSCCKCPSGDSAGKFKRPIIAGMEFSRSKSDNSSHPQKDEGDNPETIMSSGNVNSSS

In the case of `CC(C)Oc1ccc(-c2cnc(-c3ccc(CN4CC(C(=O)O)C4)cc3)s2)cc1` [Example 2, 1-(4-(5-(4-isopropoxyphenyl)thiazol-2-yl)benzyl)azetidine-3-carboxylic acid], the activation at 1 µM on Human S1P4 receptor was less than 20%. Moreover, the pEC50 on Human S1P1 receptor [1] is ≥ 8.00 and 8.42; at Human S1P3 receptor [3] it was not above 5.70; on Human S1P1 receptor [4] it was not below 7.30. The Emax at 1 µM at Human S1P3 receptor [2] is less than 20%. For the same compound, the “ED50, dose reducing blood lymphocytic cells by 50%” value is listed as 0.13 mg/kg body weight in the data set with blood lymphocytic cells (gavage administration) and 0.1 mg/kg body weight in the data set with blood lymphocytic cells (vascular administration). Also, the “suppression of the heart rate” value in the data set with heart rate is recorded as “not recognized”.
Take `CC(C)Oc1ccc(-c2cnc(-c3ccc(CN4CC(C(=O)O)C4)cc3)s2)cc1Cl` [Example 3, 1-(4-(5-(3-chloro-4-isopropoxyphenyl)thiazol-2-yl)benzyl)azetidine-3-carboxylic acid]: the activation at 1 µM at Human S1P4 receptor is less than 20%. Besides, the negative-log EC50 (pEC50) was ≥ 9.00 and 9.39 on Human S1P1 receptor [1]; not above 5.70 at Human S1P3 receptor [3]; not below 8.00 on Human S1P1 receptor [4]. Further, the Emax at 1 µM on Human S1P3 receptor [2] lay in the range of 20 to 50%. Further, the “ED50, dose reducing blood lymphocytic cells by 50%” value with blood lymphocytic cells (gavage administration) was determined as 0.15 mg/kg body weight; with blood lymphocytic cells (vascular administration), 0.016 mg/kg body weight. The “suppression of the heart rate” value in the data set with heart rate was “not recognized”.
